In patent US11479550B2, “EP4 antagonist” (ONO PHARMACEUTICAL CO., LTD., priority 2017, dated 2022):

Target: human EP4 receptor (Homo sapiens (Human), UniProt P35408)
Assay: EP4 antagonistic activity measurement experiment using prostanoid receptor subtype expressing cells
Assay type: cell-based
Conditions: CHO cells expressing human EP4 receptor; inhibition of cAMP production by PGE2 10 nM; 30 minutes at room temperature
Method: CHO cells expressing human EP4 receptor subtypes were prepared according to the methods of Nishigaki et al. (Non-Patent Literature 4), and used for experiment. Cells cultured to subconfluent were detached, and suspended in an assay medium (MEM containing 1 mmol/L IBMX, 1% HSA) such that a concentration became 1×10^6 cells/mL. For reaction, PGE2 was added to the cell suspension (25 μL) in a final concentration of 10 nmol/L, either alone or as a 25-μL PGE2 solution containing the test compound. After 30 minutes of reaction at room temperature, the amount of cAMP in the cells was quantified according to the method in the descriptions of the cAMP assay kit (CISBIO).
Note here that the antagonistic effect (IC50 value) of the test compound was calculated as a value that represents an inhibition rate against a reaction with PGE2 alone at 10 nM, a concentration that produces a submaximal cAMP producing effect.

Chain of human EP4 receptor (P35408 whole entry): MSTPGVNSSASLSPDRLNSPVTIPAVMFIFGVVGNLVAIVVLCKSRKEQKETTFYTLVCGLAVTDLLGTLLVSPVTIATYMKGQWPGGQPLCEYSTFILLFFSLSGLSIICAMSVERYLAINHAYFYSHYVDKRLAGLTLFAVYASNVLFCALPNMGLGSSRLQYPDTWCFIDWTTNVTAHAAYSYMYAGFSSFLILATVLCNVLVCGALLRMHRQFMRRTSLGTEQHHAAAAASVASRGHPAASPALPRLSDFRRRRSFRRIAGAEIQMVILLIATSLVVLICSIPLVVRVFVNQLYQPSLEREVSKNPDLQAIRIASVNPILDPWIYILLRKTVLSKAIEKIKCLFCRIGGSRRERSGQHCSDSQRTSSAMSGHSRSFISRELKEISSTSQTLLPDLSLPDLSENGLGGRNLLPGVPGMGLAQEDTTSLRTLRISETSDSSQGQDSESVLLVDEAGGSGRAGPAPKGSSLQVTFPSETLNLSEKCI

| IC50 | SMILES |
| --- | --- |
| 1.4 nM | Cc1cnn(Cc2ccc(CCCC(=O)O)c(NC(=O)C(C)n3cc(C)c4ccc(C(=O)NCC5CC5)cc43)c2)c1 (single isomer, unassigned) [Example 3-20(2), 4-{2-[(2-{6-[(cyclopropylmethyl)carbamoyl]-3-methyl-1H-indol-1-yl}propanoyl)amino]-4-[(4-methyl-1H-pyrazol-1-yl)methyl]phenyl}butanoic acid] |
| 1.8 nM | CNC(=O)c1ccc2c(C)cn(C(C)C(=O)Nc3cc(Cn4nc(C)cc4C(F)(F)F)ccc3CCCC(=O)O)c2c1 (single isomer, unassigned) [Example 2-27(4), 4-[2-({2-[3-methyl-6-(methylcarbamoyl)-1H-indol-1-yl]propanoyl}amino)-4-{[3-methyl-5-(trifluoromethyl)-1H-pyrazol-1-yl]methyl}phenyl]butanoic acid] |
| 2 nM | Cc1cn(C(C)C(=O)Nc2cc(C#N)ccc2CCCC(=O)O)c2cc(C(=O)NC3CCCC3)ccc12 (single isomer, unassigned) [Example 11-11(2), 4-[4-cyano-2-({2-[6-(cyclopentylcarbamoyl)-3-methyl-1H-indol-1-yl]propanoyl}amino)phenyl]butanoic acid] |
| 3.3 nM | CNC(=O)c1ccc2c(C)cn(C(C)C(=O)Nc3cc(Cn4cc(Cl)cn4)ccc3CCCC(=O)O)c2c1 (centres unmarked) [Example 1-14, 4-{4-[(4-chloro-1H-pyrazol-1-yl)methyl]-2-({2-[3-methyl-6-(methylcarbamoyl)-1H-indol-1-yl]propanoyl}amino)phenyl}butanoic acid] |
| 2.2 nM | COCCNC(=O)c1ccc2c(C3CC3)cn(C(C)C(=O)Nc3cc(Cn4cc(C)cn4)ccc3CCCC(=O)O)c2c1 (single isomer, unassigned) [Example 9-5(2), 4-{2-[(2-{3-cyclopropyl-6-[(2-methoxyethyl)carbamoyl]-1H-indol-1-yl}propanoyl)amino]-4-[(4-methyl-1H-pyrazol-1-yl)methyl]phenyl}butanoic acid] |
| 1.2 nM | CNC(=O)c1ccc2c(C)cn(C(C)C(=O)Nc3cc(Cn4cc(C)c(C)n4)ccc3CCCC(=O)O)c2c1 (single isomer, unassigned) [Example 2-6(2), 4-{4-[(3,4-dimethyl-1H-pyrazol-1-yl)methyl]-2-({2-[3-methyl-6-(methylcarbamoyl)-1H-indol-1-yl]propanoyl}amino)phenyl}butanoic acid] |
| 3.3 nM | COCCNC(=O)c1ccc2c(C)cn(C(C)C(=O)Nc3cc(Cn4cnc(C(F)(F)F)n4)ccc3CCCC(=O)O)c2c1 (single isomer, unassigned) [Example 7-1(2), 4-(2-[(2-{6-[(2-methoxyethyl)carbamoyl]-3-methyl-1H-indol-1-yl}propanoyl)amino]-4-{[3-(trifluoromethyl)-1H-1,2,4-triazol-1-yl]methyl}phenyl)butanoic acid] |
| 1.5 nM | CNC(=O)c1ccc2c(C)cn(C(C)C(=O)Nc3cc(Cn4cnc(C(F)(F)F)n4)ccc3CCCC(=O)O)c2c1 (single isomer, unassigned) [Example 7-3(2), 4-[2-({2-[3-methyl-6-(methylcarbamoyl)-1H-indol-1-yl]propanoyl}amino)-4-{[3-(trifluoromethyl)-1H-1,2,4-triazol-1-yl]methyl}phenyl]butanoic acid] |
| 12 nM | COCCNC(=O)c1ccc2c(C)cn(C(C)C(=O)Nc3cc(F)ccc3CCCC(=O)O)c2c1 (single isomer, unassigned) [Example 11-30(2), 4-{4-fluoro-2-[(2-{6-[(2-methoxyethyl)carbamoyl]-3-methyl-1H-indol-1-yl}propanoyl)amino]phenyl}butanoic acid] |
| 0.79 nM | CNC(=O)c1ccc2c(C)cn(C(C)C(=O)Nc3cc(Oc4ccccc4)ccc3CCCC(=O)O)c2c1 (centres unmarked) [Example 13, 4-[2-({2-[3-methyl-6-(methylcarbamoyl)-1H-indol-1-yl]propanoyl}amino)-4-phenoxyphenyl]butanoic acid] |
| 8.6 nM | Cc1cnn(Cc2ccc(CCCC(=O)O)c(NC(=O)C(C)n3cc(C)c4cc(C(=O)N5CCCC5)ccc43)c2)c1 (single isomer, unassigned) [Example 8-17(2), 4-{4-[(4-methyl-1H-pyrazol-1-yl)methyl]-2-({2-[3-methyl-5-(1-pyrrolidinylcarbonyl)-1H-indol-1-yl]propanoyl}amino)phenyl}butanoic acid] |
| 360 nM | CC(C(=O)Nc1cc(C#N)ccc1CCCC(=O)O)c1c[nH]c2ccccc12 (centres unmarked) [4-[4-cyano-2-[2-(indol-3-yl)propanoylamino]phenyl]butanoic acid, reference compound] |
| 1.7 nM | Cc1cnn(Cc2ccc(CCCC(=O)O)c(NC(=O)C(C)n3cc(C)c4ccc(C(=O)NC(C)C)cc43)c2)c1 (single isomer, unassigned) [Example 3-7(2), 4-{2-({2-[6-(isopropylcarbamoyl)-3-methyl-1H-indol-1-yl]propanoyl}amino)-4-[(4-methyl-1H-pyrazol-1-yl)methyl]phenyl}butanoic acid] |
| 1.6 nM | CNC(=O)c1ccc2c(C)cn(C(C)C(=O)Nc3cc(Cn4cc(C)cn4)ccc3CCCC(=O)O)c2c1 (single isomer, unassigned) [Example 12-1(2), 4-{2-({2-[3-methyl-6-(methylcarbamoyl)-1H-indol-1-yl]propanoyl}amino)-4-[(4-methyl-1H-pyrazol-1-yl)methyl]phenyl}butanoic acid] |

More lines, now with the values behind:

| SMILES | IC50 |
| --- | --- |
| CNC(=O)c1ccc2c(C)cn(C(C)C(=O)Nc3cc(CN4CCCCS4(=O)=O)ccc3CCCC(=O)O)c2c1 (centres unmarked) [Example 2, 4-{4-[(1,1-dioxide-1,2-thiazinan-2-yl)methyl]-2-({2-[3-methyl-6-(methylcarbamoyl)-1H-indol-1-yl]propanoyl}amino)phenyl}butanoic acid] | 39 nM |
| COCCNC(=O)c1ccc2ccn(C(C)C(=O)Nc3cc(C#N)ccc3CCCC(=O)O)c2c1 (single isomer, unassigned) [Example 10-1(2), 4-{4-cyano-2-[(2-{6-[(2-methoxyethyl)carbamoyl]-1H-indol-1-yl}propanoyl)amino]phenyl}butanoic acid] | 3.7 nM |
| CNC(=O)c1ccc2c(C)cn(C(C)C(=O)Nc3cc(Cn4cc5c(n4)CCC5)ccc3CCCC(=O)O)c2c1 (centres unmarked) [Example 2-18, 4-[4-(5,6-dihydrocyclopenta[c]pyrazol-2(4H)-ylmethyl)-2-({2-[3-methyl-6-(methylcarbamoyl)-1H-indol-1-yl]propanoyl}amino)phenyl]butanoic acid] | 5.5 nM |
| CNC(=O)c1ccc2c(C3CC3)cn(C(C)C(=O)Nc3cc(Cn4cc(C)cn4)ccc3CCCC(=O)O)c2c1 (single isomer, unassigned) [Example 9-1(2), 4-{2-({2-[3-cyclopropyl-6-(methylcarbamoyl)-1H-indol-1-yl]propanoyl}amino)-4-[(4-methyl-1H-pyrazol-1-yl)methyl]phenyl}butanoic acid] | 4.6 nM |
| CNC(=O)c1ccc2c(C)cn(C(C)C(=O)Nc3cc(-c4nnc(C)o4)ccc3CCCC(=O)O)c2c1 (single isomer, unassigned) [Example 15-1(2), 4-[2-({2-[3-methyl-6-(methylcarbamoyl)-1H-indol-1-yl]propanoyl}amino)-4-(5-methyl-1,3,4-oxadiazol-2-yl)phenyl]butanoic acid] | 6.4 nM |
| CNC(=O)c1ccc2c(C)cn(C(C)C(=O)Nc3cc(Cn4cc(F)cn4)ccc3CCCC(=O)O)c2c1 (single isomer, unassigned) [Example 4-8(2), 4-{4-[(4-fluoro-1H-pyrazol-1-yl)methyl]-2-({2-[3-methyl-6-(methylcarbamoyl)-1H-indol-1-yl]propanoyl}amino)phenyl}butanoic acid] | 2.7 nM |
| Cc1cn(C(C)C(=O)Nc2cc(C#N)ccc2CCCC(=O)O)c2cc(C(=O)NC(C)(C)C)ccc12 (single isomer, unassigned) [Example 11-7(2), 4-{4-cyano-2-[(2-{3-methyl-6-[(2-methyl-2-propanyl)carbamoyl]-1H-indol-1-yl}propanoyl)amino]phenyl}butanoic acid] | 1.6 nM |
| CNC(=O)c1ccc2c(C)cn(C(C)C(=O)Nc3cc(C#N)ccc3CCCC(=O)O)c2c1 (single isomer, unassigned) [Example 11-3(2), 4-[4-cyano-2-({2-[3-methyl-6-(methylcarbamoyl)-1H-indol-1-yl]propanoyl}amino)phenyl]butanoic acid] | 2.7 nM |
| Cc1cnn(Cc2ccc(CCCC(=O)O)c(NC(=O)C(C)n3cc(C)c4cc(C(=O)NC(C)C)ccc43)c2)c1 (single isomer, unassigned) [Example 8-9(2), 4-{2-({2-[5-(isopropylcarbamoyl)-3-methyl-1H-indol-1-yl]propanoyl}amino)-4-[(4-methyl-1H-pyrazol-1-yl)methyl]phenyl}butanoic acid] | 3.3 nM |
| Cc1cn(C(C)C(=O)Nc2cc(C#N)ccc2CCCC(=O)O)c2cc(C(=O)NCc3ccccc3)ccc12 (centres unmarked) [Example 11-8, 4-[2-({2-[6-(benzylcarbamoyl)-3-methyl-1H-indol-1-yl]propanoyl}amino)-4-cyanophenyl]butanoic acid] | 4 nM |
| Cc1cnn(Cc2ccc(CCCC(=O)O)c(NC(=O)C(C)n3cc(C)c4ccc(C(=O)N(C)C)cc43)c2)c1 (single isomer, unassigned) [Example 3-11(2), 4-{2-({2-[6-(dimethylcarbamoyl)-3-methyl-1H-indol-1-yl]propanoyl}amino)-4-[(4-methyl-1H-pyrazol-1-yl)methyl]phenyl}butanoic acid] | 4.6 nM |
| CCNC(=O)c1ccc2c(C)cn(C(C)C(=O)Nc3cc(Cn4cc(C)cn4)ccc3CCCC(=O)O)c2c1 (single isomer, unassigned) [Example 3-3(2), 4-{2-({2-[6-(ethylcarbamoyl)-3-methyl-1H-indol-1-yl]propanoyl}amino)-4-[(4-methyl-1H-pyrazol-1-yl)methyl]phenyl}butanoic acid] | 0.9 nM |
